MBC data for 5 compounds are collected here from patent US9895387B2, “Compositions for treating Helicobacter pylori infection” (OVER S.R.L., priority 2010, dated 2018).

Values after ≈ are worked out from the molar mass of the structure shown. Where two headings read alike, the source gives them in different places.

Assay type in all cases: cell-based, Helicobacter pylori
The test system of test [1] is H. pylori strain G50 (CagA−). The experiment in a line: Minimal bactericidal concentration (MBC), broth dilution with subculture on agar. Conditions: substance alone.
For test [2], the system named is H. pylori strain 10K (CagA+). The test is described as above. Conditions: substance alone.
In test [3] the test system is H. pylori strain G21 (CagA−). The description is as above. To be noted: substance alone.
In test [4] the test system is H. pylori strain M/C-R1 (CagA+, resistant to met and clar). The test is described as above. To be noted: substance alone.
Test [5] relates to H. pylori strain CCUG 17874 (CagA+). The test is described as above.
Test [6] has as its system H. pylori strain Di Simpli (CagA+). The description is as above. Conditions: substance alone.
For test [7], the system named is H. pylori strain 4 Kb (CagA+). The test is described as above. To be noted: substance alone.
Test [8] relates to H. pylori strain 328 (CagA+). The description is as above. Conditions: substance alone.
The subject of test [9] is H. pylori strain M/C-R2 (CagA+, resistant to met and clar). The test is described as above. To be noted: substance alone.
Test [10] has as its system H. pylori strain 328 Km (isogenic mutant CagA−). Conditions: substance alone.
Where [11] appears, read: Helicobacter pylori, read-out: MBC.
Where [12] appears, read: Helicobacter pylori, CCUG17874, substance alone, read-out: MBC.

Take `C[C@H]1COc2c(N3CCN(C)CC3)c(F)cc3c(=O)c(C(=O)O)cn1c23` [levofloxacin]: the values for the MBC in [1] (setting [11]) and in [2] (setting [11]) were 0.16 µg/mL (≈ 0.443 µM) and 0.31 µg/mL (≈ 0.858 µM), respectively.

`CC[C@H]1OC(=O)[C@H](C)[C@@H](O[C@H]2C[C@@](C)(OC)[C@@H](O)[C@H](C)O2)[C@H](C)[C@@H](O[C@@H]2O[C@H](C)C[C@H](N(C)C)[C@H]2O)[C@](C)(OC)C[C@@H](C)C(=O)[C@H](C)[C@@H](O)[C@]1(C)O` [clarithromycin]: the MBC in test [3] (setting [11]) stood at 0.2 µg/mL (≈ 0.267 µM); in test [1] (setting [11]), 0.2 µg/mL (≈ 0.267 µM); in test [4] (setting [11]), 320 µg/mL (≈ 428 µM); in [5] (setting [12]), 0.25 µg/mL (≈ 0.334 µM); in [6] (setting [11]) it was 0.4 µg/mL (≈ 0.535 µM); in [7] (setting [11]), 0.1 µg/mL (≈ 0.134 µM). The MBC in test [8] (setting [11]) was 0.2 µg/mL (≈ 0.267 µM); in test [9] (setting [11]), 2500 µg/mL (≈ 3340 µM).

On to `Cc1ncc([N+](=O)[O-])n1CCO` [metronidazole], for which the MBC in test [4] (setting [11]) was found to be 40 µg/mL (≈ 234 µM); in test [5] (setting [12]), 3.1 µg/mL (≈ 18.1 µM); in test [6] (setting [11]), 10 µg/mL (≈ 58.4 µM); in [8] (setting [11]), 16 µg/mL (≈ 93.5 µM); in test [9] (setting [11]), 320 µg/mL (≈ 1870 µM).

With “polyoxyethylene (20) sorbitan monooleate [polysorbate 80]”, the MBC turned out to be 1.6 µg/mL in test [3]; 4.0 µg/mL in test [1]; 4 µg/mL in [1] (listed as polysorbate); 62 µg/mL in test [10]; 160 µg/mL in test [4]; 6.2 µg/mL in [2]. The MBC is 5.0 µg/mL in test [5] (substance alone); 25 µg/mL in [6]; 31 µg/mL in [7]; 31 to 62 µg/mL in test [8]; 62 µg/mL in [8] (listed as polysorbate); 62 µg/mL in test [9].

In the case of `CC1(C)S[C@@H]2[C@H](NC(=O)[C@H](N)c3ccc(O)cc3)C(=O)N2[C@H]1C(=O)O` [amoxicillin], the values for the MBC in test [1] (setting [11]) and in test [2] (setting [11]) were 0.04 µg/mL (≈ 0.109 µM) and 0.08 µg/mL (≈ 0.219 µM), respectively.
